How the values were obtained:
[1] = Metabolites of Compound 1 (active metabolites)
Procedure: Compound 1 metabolites formed during incubation of Compound 1 with rat, dog, and human liver microsomes, rat and human hepatocytes, as well as those generated in vivo and isolated from rat bile and rat and dog plasma have been investigated. Authentic standards of the majority of the metabolites have been chemically synthesized. The identity of the in vitro and in vivo metabolites were confirmed by comparison with the authentic standard and/or by the fragmentation pattern observed following LC-MS/MS analysis.

CYP2C19 = CYP2C19 (Homo sapiens (Human), UniProt P33261); assay: Extracellular cytochrome P450 inhibition (microsomes); conditions: 2C19, mephenytoin 4′-hydroxylation
CYP2C19, sequence (P33261 whole entry): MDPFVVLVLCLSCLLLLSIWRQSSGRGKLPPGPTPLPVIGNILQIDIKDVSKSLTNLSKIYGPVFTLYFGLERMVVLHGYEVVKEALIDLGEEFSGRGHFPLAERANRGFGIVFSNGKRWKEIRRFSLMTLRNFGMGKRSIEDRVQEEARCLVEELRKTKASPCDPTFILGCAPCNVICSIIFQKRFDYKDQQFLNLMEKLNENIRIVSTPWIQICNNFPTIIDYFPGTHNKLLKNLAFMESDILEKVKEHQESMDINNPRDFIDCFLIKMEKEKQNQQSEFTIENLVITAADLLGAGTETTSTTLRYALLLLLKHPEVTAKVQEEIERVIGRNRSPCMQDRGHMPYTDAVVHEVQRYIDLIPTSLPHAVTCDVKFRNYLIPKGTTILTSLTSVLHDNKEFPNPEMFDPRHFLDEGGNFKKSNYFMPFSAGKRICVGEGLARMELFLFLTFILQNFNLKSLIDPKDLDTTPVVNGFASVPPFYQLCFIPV

| SMILES | activity of metabolite [1] | IC50 (CYP2C19) |
| --- | --- | --- |
| COc1ccc(CC(=O)O)cc1Oc1ccc(NC(=O)C(C)(C)C)cc1C[S+]([O-])C(C)(C)C (centres unmarked) [Compound M1, 2-(3-(2-(tert-butylsulfinylmethyl)-4-pivalamidophenoxy)-4-methoxyphenyl)acetic acid] | active | – |
| COc1ccc(CC(=O)O)cc1Oc1ccc(NC(=O)C(C)(C)C)cc1CS(=O)(=O)C(C)(C)C [Compound M2, 2-(3-(2-(tert-butylsulfonylmethyl)-4-pivalamidophenoxy)-4-methoxyphenyl)acetic acid] | active | – |
| CCC1(c2ccccc2)C(=O)NC(=O)N(Cc2ccccc2)C1=O (single isomer, unassigned; (-)) [(-)-N-3-benzyl-phenobarbital, reference compound] | – | 8.7 µM |
| CC(C)(C)SCc1cc(NC(=O)C(C)(C)C)ccc1Oc1cc(CC(=O)O)ccc1O [Compound M3, 2-(3-(2-(tert-butylthiomethyl)-4-pivalamidophenoxy)-4-hydroxyphenyl)acetic acid] | active | – |
| CC(C)(C)C(=O)Nc1ccc(Oc2cc(CC(=O)O)ccc2O)c(C[S+]([O-])C(C)(C)C)c1 (centres unmarked) [Compound M5, 2-(3-(2-(tert-butylsulfinylmethyl)-4-pivalamidophenoxy)-4-hydroxyphenyl)acetic acid] | active | – |

Source: patent publication US9688624B2, “DP2 antagonist and uses thereof” (Brickell Biotech, Inc., priority 2010, dated 2017)
